Values joined by “and” are separate entries in the source; they are usually repeats but may differ in a detail not shown here. Equal values may be shown once.
Legend:
[1] = tested on: ratio of L. crispatus/S. anginosus; assay: Therapeutic effect protocol (competition assay); type: cell-based, Lactobacillus crispatus; Streptococcus anginosus; conditions: Lc-3 vs Sa-2
Text: As used herein, the term “therapeutic effect” refers to the ability of the compositions and formulations of the present disclosure to stimulate the growth of L. crispatus relative S. anginosus measured according to the therapeutic effect protocol described below. The therapeutic effect can be expressed as a ratio of L. crispatus to S. anginosus and is desirably greater than about 100, more preferably greater than about 500 and more desirably greater than about 1,000.
Further testing was conducted to put the prebiotic compounds in competition assay testing, as further described in the test methods section herein. In the competition assay testing, each competition involved testing a single prebiotic compound with the commensal bacteria species of L. crispatus, KC18-1173-1, Bladder (“Lc-3”—Table 2) against the pathogenic bacterial species of S. anginosus, KC18-1131-3B, Bladder (“Sa-2”—Table 2).
• 1. An in house bacterial agar was created based on MRS agar (Kaplan and Hutkins, 2000) where the glucose is substituted for the prebiotic to be tested (either dextran MW ˜6,000, alpha-cyclodextrin, glucomannan, or pectin), bromocresol purple was included as a pH indicator. • 2. Bacteria were enumerated on each agar and color changes were recorded. Method for Competition Assay (Modified from “In Vitro Evaluation of Nutrients that Selectively Confer a Competitive Advantage to Lactobacilli” Vongsa et al, Beneficial Microbes 2016) • 1. Create 2% w/v stock of prebiotic or positive control (glucose/dextrose) as described above. • 2. From a freezer stock subculture the bacteria twice into De Man, Rogosa and Sharpe (MRS) broth (BD Difco, Becton Dickinson, Franklin Lakes, NJ), 37° C., stationary, anaerobic, overnight. • 3. From the last subculture, plate onto an MRS agar plate for L. crispatus KC18-1173-1 or blood agar for S. anginosus KC18-1131-3B, grow 37° C., stationary, anaerobic, overnight. • 4. Create a bacterial suspension by using a sterile tipped swab to transfer colonies of bacteria into a PBS suspension blank to a 2 MacFarland for both species. • 5. Enumerate the starting culture. • 6. Add 9.8 mL of prebiotic media into a 15 mL conical tube. • 7. Add 100 μL of the diluted bacteria to the media, incubate at 37° C., anaerobic, 48 hours. • 8. Harvest 100 μL from the tube containing the prebiotic and plate onto MRS agar and tryptic soy agar (TSA). • 9. Enumerate the bacteria on the MRS agar (both the L. crispatus and the S. anginosus). Small colonies are counted as S. anginosus and large colonies are counted as L. crispatus. • 10. Enumerate the bacteria on the TSA plate. […] Growth of the bacteria in the negative control (CHL media without prebiotic) was subtracted from the growth in the presence of the prebiotic or formulation.
Colonies of L. crispatus and S. anginosus were tested against in the competition method assay test method as described above. The therapeutic effect was calculated by comparing the colony forming units recovered after the competition assay of both L. crispatus and S. anginosus and calculating the ratio of L. crispatus/S. anginosus. A larger number indicates an increase in L. crispatus and/or a decrease in S. anginosus and a smaller number indicates a decrease in L. crispatus and/or an increase in S. anginosus.

[2] = tested on: E. coli; assay: Additional prebiotic screening against E. coli; type: cell-based, Escherichia coli; conditions: for # fermented, Ec-1 / # grew, Ec-1: E. coli KC16-7171-8, Bladder; for # fermented, Ec-1 / # grew, Ec-1 / # fermented, Ec-2 / # grew, Ec-2 / # fermented, Ec-3 / # grew, Ec-3 / # fermented, Ec-4 / # grew, Ec-4 / # fermented, Ec-5 / # grew, Ec-5: of 2 tested; for # fermented, Ec-2 / # grew, Ec-2: E. coli KC17-3969-1, Bladder; for # fermented, Ec-3 / # grew, Ec-3: E. coli KC17-3970-4, Vagina; for # fermented, Ec-4 / # grew, Ec-4: E. coli KC17-4296-4, Vagina; for # fermented, Ec-5 / # grew, Ec-5: E. coli KC17-4297-5, Bladder; for growth or fermentation of E. coli, in words: E. coli from vaginal or bladder source
Text: Additional screening of three prebiotic compounds of alpha-methyl-D-glucoside, isomaltulose, and alpha cyclodextrin was completed against pathogenic bacteria species Escherichia coli from both bladder and vaginal sources, as shown in Table 4. The growth of the bacterial species for this additional screening process against E. coli was not compared to growth of a control as in the screening process documented in Table 3, but was documented based on growth or no growth for the number of samples tested.
• 1. Create a 2% w/v stock of prebiotic or positive control (glucose/dextrose) to be tested in API 50 CHL media (Biomerieux, Marcy-I'Étoile, France). API 50 CHL media contains minimal amounts of carbon for growth, and a bromocresol purple as a pH indicator of fermentation. Filter sterilize media with a […]. Store at 4-6° C. until use. • 2. Add 180 μL of media containing the prebiotic to a sterile, flat bottom 96-well microtiter plate (Corning, Corning, NY). • 3. From a freezer stock subculture the bacteria twice into De Man, Rogosa and Sharpe (MRS) broth (BD Difco, Becton Dickinson, Franklin Lakes, NJ), 37° C., stationary, anaerobic, overnight. • 4. From the last subculture, plate onto an MRS agar plate (Teknova, Hollister, CA) and grow 37° C., stationary, anaerobic, overnight. • 5. Create a bacterial suspension by using a sterile tipped swab to transfer colonies of bacteria into a PBS suspension blank to a 0.5 MacFarland (S. anginosus or E. faecalis) or a 1 MacFarland (Lactobacillus species) from the MRS agar plate. • 6. Enumerate the starting culture. • 7. Inoculate the media alone and media containing the prebiotic or positive control with 20 μL of the bacterial suspension. • 8. Place the plate into a spectrophotometer (Molecular Devices, San Jose, CA) and read the plate every 20 minutes for 24-48 hours. Read wavelengths (OD 430, OD 590, and OD 660). A color change to yellow caused by a drop in pH will be read by an increase in the OD430 value and a decrease in the OD590 value and is indicative of bacterial fermentation. An increase in OD660 values is indicative of an increase in turbidity and bacterial growth.

SMILES	outcome of the bacterial competition assay, in words ([1]; Tables 6 and 7)	# fermented, Ec-1 [2]	# grew, Ec-1 [2]	# fermented, Ec-2 [2]	# grew, Ec-2 [2]	# fermented, Ec-3 [2]	# grew, Ec-3 [2]	# fermented, Ec-4 [2]	# grew, Ec-4 [2]	# fermented, Ec-5 [2]	# grew, Ec-5 [2]	growth or fermentation of E. coli, in words [2]	Therapeutic Effect (ratio of L. crispatus/S. anginosus) ([1]; Table 6, prebiotic 2%)
OC[C@H]1O[C@H](OC[C@H]2OC(O)(CO)[C@@H](O)[C@@H]2O)[C@H](O)[C@@H](O)[C@@H]1O (stereo partly drawn) [Palatinose (isomaltulose), isomaltulose]	supported the growth of Lactobacillus crispatus over Streptococcus anginosus	0	0	0	0	0	0	0	0	0	0	did not grow or ferment	
CO[C@H]1O[C@H](CO)[C@@H](O)[C@H](O)[C@H]1O [Alpha-Methyl-D-Glucoside]		0	0	0	0	0	0	0	0	0	0	did not grow or ferment	1.21E−01 (2×) and 1.74E−01 (2×)
